Reference: ChEMBL document CHEMBL1145064, “Fluorine substitution can block CYP3A4 metabolism-dependent inhibition: identification of (S)-N-[1-(4-fluoro-3- morpholin-4-ylphenyl)ethyl]-3- (4-fluorophenyl)acrylamide as an orally bioavailable KCNQ2 opener devoid of CYP3A4 metabolism-dependent inhibition” (J Med Chem, 2003)

What was measured:
[1] = Plasma clearance in rat after i.v. dose of 1 mg/kg; assay type: ADME, organism-based; parameters: dose 1 mg/kg, route intravenous; conditions: iv
[2] = Oral bioavailability in rat after oral administration of 10 mg/kg dose; assay type: ADME, organism-based; conditions: in vivo
[3] = Elimination half life in rat after i.v. dose of 1 mg/kg; assay type: ADME, organism-based; parameters: dose 1 mg/kg, route intravenous; conditions: in vivo, iv
[4] = target: Potassium voltage-gated channel subfamily KQT member 2 (Homo sapiens, UniProt O43526); assay: Effective concentration against Potassium voltage gated channel, KQT-like subfamily, member 2 expressed in SH-SY5Y human neuroblastoma cells; assay type: cell-based
Potassium voltage-gated channel subfamily KQT member 2, sequence (O43526 whole entry): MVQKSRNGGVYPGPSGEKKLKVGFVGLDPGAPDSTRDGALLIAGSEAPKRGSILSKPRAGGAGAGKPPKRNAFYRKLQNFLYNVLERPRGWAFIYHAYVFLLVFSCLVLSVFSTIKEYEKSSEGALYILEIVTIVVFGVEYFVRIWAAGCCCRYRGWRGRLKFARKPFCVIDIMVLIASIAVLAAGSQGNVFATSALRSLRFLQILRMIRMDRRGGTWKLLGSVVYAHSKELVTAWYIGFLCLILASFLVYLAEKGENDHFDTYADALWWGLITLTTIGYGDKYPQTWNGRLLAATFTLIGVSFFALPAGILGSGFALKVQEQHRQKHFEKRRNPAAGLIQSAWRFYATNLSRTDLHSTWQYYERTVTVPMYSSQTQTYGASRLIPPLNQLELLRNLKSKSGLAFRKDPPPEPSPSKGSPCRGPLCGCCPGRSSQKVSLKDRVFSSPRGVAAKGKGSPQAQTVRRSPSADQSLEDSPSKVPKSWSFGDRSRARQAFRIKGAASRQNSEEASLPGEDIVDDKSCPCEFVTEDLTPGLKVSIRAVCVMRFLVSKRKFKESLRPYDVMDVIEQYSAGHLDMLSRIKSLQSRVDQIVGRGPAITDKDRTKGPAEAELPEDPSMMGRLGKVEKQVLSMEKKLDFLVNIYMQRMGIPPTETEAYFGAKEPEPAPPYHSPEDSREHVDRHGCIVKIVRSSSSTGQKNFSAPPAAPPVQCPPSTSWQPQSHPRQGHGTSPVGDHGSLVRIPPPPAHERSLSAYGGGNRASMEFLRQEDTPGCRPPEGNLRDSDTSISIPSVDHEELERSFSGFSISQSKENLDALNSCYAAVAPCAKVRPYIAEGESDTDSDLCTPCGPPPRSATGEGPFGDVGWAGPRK

[5] = Vd compound was determined in rat after i.v. dose of 1 mg/kg; assay type: ADME, organism-based; parameters: dose 1 mg/kg, route intravenous; conditions: in vivo, iv
[6] = target: T1, Cytochrome P450 3A4 (Homo sapiens, UniProt P08684)
T1 sequence (P08684 whole entry): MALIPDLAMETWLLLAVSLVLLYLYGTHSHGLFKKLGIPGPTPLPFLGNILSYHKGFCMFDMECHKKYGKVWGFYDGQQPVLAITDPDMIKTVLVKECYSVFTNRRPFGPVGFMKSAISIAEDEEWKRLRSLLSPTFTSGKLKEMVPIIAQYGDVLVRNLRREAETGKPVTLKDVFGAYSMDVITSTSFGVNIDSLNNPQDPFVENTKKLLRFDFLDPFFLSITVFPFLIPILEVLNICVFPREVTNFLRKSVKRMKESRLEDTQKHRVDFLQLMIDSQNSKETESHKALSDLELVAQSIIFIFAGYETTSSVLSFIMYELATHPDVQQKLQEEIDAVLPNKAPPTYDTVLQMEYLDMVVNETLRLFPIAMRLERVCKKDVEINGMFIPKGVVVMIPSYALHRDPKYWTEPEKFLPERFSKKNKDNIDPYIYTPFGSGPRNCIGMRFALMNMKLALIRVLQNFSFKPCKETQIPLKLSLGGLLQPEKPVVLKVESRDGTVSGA
Description: Inhibition of recombinant human Cytochrome P450 3A4 with BFC [7-benzyloxy-4-trifluoromethylcoumarin] after 15 minutes

[7] = target: T1, Cytochrome P450 3A4; remark: listed apart in the source
Description: Inhibition of recombinant human Cytochrome P450 3A4 using BFC [7-benzyloxy-4-trifluoromethylcoumarin] after 30 minutes

[8] = target: T1, Cytochrome P450 3A4; remark: listed apart in the source
Description: Inhibition of recombinant human Cytochrome P450 3A4 with BFC [7-benzyloxy-4-trifluoromethylcoumarin] after 45 minutes

[9] = target: T1, Cytochrome P450 3A4; remark: listed apart in the source
Description: Inhibition of recombinant human Cytochrome P450 3A4 with BFC [7-benzyloxy-4-trifluoromethylcoumarin] after 5 minutes

[10] = target: Potassium voltage-gated channel subfamily KQT member 2 (Mus musculus) (UniProt Q9Z351); assay: Effective concentration against Potassium voltage gated channel KQT-like subfamily, member 2 (mouse) expressed in HEK 293 cells
Potassium voltage-gated channel subfamily KQT member 2 (Mus musculus), sequence (Q9Z351 whole entry, looked up): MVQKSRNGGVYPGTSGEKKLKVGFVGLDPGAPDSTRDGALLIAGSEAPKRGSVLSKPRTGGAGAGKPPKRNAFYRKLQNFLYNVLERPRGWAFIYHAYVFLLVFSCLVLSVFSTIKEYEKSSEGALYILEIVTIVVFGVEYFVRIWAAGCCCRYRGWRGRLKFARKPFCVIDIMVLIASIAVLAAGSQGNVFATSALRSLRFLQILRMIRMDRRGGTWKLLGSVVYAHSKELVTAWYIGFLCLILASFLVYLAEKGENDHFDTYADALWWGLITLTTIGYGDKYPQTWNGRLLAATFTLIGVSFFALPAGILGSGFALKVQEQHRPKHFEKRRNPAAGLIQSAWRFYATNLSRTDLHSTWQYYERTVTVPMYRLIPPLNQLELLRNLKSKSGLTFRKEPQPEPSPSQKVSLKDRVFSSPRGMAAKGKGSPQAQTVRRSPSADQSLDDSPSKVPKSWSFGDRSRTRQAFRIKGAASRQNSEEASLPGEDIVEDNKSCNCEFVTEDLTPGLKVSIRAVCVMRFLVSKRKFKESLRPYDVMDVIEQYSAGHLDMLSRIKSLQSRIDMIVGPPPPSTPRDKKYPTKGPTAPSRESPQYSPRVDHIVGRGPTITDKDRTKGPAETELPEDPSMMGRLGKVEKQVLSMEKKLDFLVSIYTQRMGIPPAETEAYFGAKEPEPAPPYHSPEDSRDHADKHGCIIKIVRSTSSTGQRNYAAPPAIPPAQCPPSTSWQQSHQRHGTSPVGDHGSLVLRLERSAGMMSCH

[11] = target: Cytochrome P450 2C9 (Homo sapiens, UniProt P11712); assay: Inhibition of recombinant human Cytochrome P450 2C9; assay type: ADME
Cytochrome P450 2C9, sequence (P11712 whole entry): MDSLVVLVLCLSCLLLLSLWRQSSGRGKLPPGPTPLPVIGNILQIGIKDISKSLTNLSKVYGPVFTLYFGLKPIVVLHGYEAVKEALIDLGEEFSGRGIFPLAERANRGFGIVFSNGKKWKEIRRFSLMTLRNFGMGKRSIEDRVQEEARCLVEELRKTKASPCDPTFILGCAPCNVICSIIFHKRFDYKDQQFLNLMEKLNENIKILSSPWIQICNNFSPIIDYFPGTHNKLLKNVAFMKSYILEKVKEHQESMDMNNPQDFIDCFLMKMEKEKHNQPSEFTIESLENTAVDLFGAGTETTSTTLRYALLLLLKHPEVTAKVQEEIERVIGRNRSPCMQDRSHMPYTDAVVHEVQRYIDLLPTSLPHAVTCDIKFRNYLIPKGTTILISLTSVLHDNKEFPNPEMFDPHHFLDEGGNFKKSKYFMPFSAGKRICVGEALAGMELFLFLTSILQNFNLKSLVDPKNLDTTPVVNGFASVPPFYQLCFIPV

[12] = target: T1, Cytochrome P450 3A4; assay type: ADME
[13] = target: T1, Cytochrome P450 3A4; assay: Inhibition of recombinant human Cytochrome P450 3A4 with Benzoylresorufin; assay type: ADME
[14] = target: T2, Cytochrome P450 1A2 (Homo sapiens, UniProt P05177); assay: Inhibition of recombinant human Cytochrome P450 1A2; assay type: ADME
T2 sequence (P05177 whole entry): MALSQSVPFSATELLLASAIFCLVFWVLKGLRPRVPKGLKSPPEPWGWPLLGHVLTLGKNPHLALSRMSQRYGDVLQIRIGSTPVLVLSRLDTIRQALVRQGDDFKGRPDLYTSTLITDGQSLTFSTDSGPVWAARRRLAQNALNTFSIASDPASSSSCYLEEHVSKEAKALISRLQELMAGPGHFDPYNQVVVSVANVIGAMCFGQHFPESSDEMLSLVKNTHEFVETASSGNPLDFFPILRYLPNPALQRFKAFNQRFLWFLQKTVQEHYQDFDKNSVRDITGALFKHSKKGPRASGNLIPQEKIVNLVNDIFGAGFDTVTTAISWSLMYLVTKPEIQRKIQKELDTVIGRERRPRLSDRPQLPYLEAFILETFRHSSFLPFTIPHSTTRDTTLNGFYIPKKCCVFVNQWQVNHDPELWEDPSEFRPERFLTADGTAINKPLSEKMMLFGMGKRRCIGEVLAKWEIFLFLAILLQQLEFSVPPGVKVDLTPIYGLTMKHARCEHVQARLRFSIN

[15] = target: Cytochrome P450 2D6 (Homo sapiens, UniProt P10635); assay: Inhibition of recombinant human Cytochrome P450 2D6; assay type: ADME
Cytochrome P450 2D6, sequence (P10635 whole entry): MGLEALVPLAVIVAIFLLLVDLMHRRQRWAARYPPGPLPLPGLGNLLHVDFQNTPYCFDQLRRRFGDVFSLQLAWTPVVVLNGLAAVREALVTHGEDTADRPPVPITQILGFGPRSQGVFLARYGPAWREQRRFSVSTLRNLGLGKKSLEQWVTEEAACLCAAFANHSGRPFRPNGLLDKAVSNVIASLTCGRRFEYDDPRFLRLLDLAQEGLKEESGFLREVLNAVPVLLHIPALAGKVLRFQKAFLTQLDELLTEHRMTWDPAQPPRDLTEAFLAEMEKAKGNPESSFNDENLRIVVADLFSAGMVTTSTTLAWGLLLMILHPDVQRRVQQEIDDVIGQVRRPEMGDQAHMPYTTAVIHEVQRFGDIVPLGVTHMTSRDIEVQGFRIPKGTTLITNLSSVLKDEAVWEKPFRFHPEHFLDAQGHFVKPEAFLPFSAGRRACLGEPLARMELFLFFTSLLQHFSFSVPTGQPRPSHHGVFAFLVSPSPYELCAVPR

[16] = target: Cytochrome P450 2C19 (Homo sapiens) (UniProt P33261); assay: Inhibition of recombinant human Cytochrome P450 2C19
Cytochrome P450 2C19 (Homo sapiens), sequence (P33261 whole entry, looked up): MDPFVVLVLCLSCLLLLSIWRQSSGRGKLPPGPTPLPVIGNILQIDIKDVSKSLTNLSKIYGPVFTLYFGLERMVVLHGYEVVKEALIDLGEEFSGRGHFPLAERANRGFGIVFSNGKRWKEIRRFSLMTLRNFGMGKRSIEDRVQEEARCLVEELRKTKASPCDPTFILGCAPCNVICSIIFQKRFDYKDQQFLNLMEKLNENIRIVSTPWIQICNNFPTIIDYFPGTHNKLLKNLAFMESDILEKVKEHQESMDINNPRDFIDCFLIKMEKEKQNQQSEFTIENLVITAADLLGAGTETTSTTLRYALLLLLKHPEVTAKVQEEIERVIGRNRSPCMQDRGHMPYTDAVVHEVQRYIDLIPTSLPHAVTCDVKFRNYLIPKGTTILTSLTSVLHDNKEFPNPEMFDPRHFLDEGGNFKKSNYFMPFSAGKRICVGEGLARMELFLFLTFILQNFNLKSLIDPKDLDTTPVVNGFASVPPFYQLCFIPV

SMILES	clearance [1] [L/h/kg]	bioavailability [2] [%]	half-life [3] [h]	EC50 [4] [µM]	Vd [5] [L/kg]	IC50 [6] [µM]	IC50 [7] [µM]	IC50 [8] [µM]	IC50 [9] [µM]	EC50 [10] [µM]	IC50 [11] [µM]	IC50 [12] [µM]	IC50 [13] [µM]	IC50 [14] [µM]	IC50 [15] [µM]	IC50 [16] [µM]
C[C@H](NC(=O)/C=C/c1ccc(F)cc1)c1ccc(F)c(N2CCOCC2)c1	1.07	84	3.5	1.55	3.3	21	19	19	18	1.2	–	–	–	–	–	–
C[C@H](NC(=O)/C=C/c1ccccc1)c1cccc(N2CCOCC2)c1	–	–	–	0.69	–	62	33	22	96	3	5.3	27	76	78	> 100	13
